{"source": "patent EP1136069A1", "about": "“Pharmaceutical compositions containing clodronates for high local tolerance intramuscular administration” (SPA SOCIETA' PRODOTTI ANTIBIOTICI S.p.A., priority 2000, dated 2001)", "origin": "cited, not measured here", "details": "oral route"}
{"smiles": "O=P(O)(O)C(Cl)(Cl)P(=O)(O)O", "note": "[clodronate]", "values": [{"measurement": "bioavailability", "result": "1-4%"}]}
